Data taken from patent US7102000B2, “Heterocyclic amide derivatives for the treatment of diabetes and other diseases” (Incyte San Diego Inc., priority 2002, dated 2006).
Structures can show the parent of a compound that is named as a salt.

Experiments:
[1] = system: KKA^y mice; experiment: Oral treatment of type 2 diabetes in KKA^y mice (serum glucose, triglyceride, cholesterol); type: in vivo, mouse
From the text: The procedure for this in-vivo assay for anti-diabetes activity was described in detail by Iwatsuka, et al. (1970 General Survey of Diabetic Features of Yellow KK Mice. Endocrinol. Japon. 17: 23–35, incorporated herein in its entirety by reference).
Experimental Procedures: Six to eight week-old male KKA^y mice (obtained from Jackson Labs of Bar Harbord, Me.) were housed in a fixed 12–12-hr artificial light-dark cycle, and maintained on a standard rodent diet provided ad libitum. Animals were allowed two days to acclimate in this experimental environment prior to the initiation of the study.
Prior to initiation of treatment with the compounds of the invention, the animals were bled from the tail vein (100–200 μL of whole blood) and serum levels of glucose and triglycerides were measured in duplicate (Trinder kits; Sigma, St. Louis, Mo.). Based on these initial measures, animals were sorted into groups with approximately the same average serum glucose levels. Once sorted, the animals were housed one per cage and provided rodent diet ad libitum. Unless otherwise indicated, compounds were suspended in sesame oil, and administered by oral gavage once daily to animals in a volume of 3 ml/kg/dose.
Treatment Group A (n=5/group): (See Results in FIG. 2a) • 1) KKA^y vehicle control (sesame oil) • 2) Compound 1 (3 mg/kg) • 3) Compound 1 (10 mg/kg) • 4) Compound 2 (3 mg/kg) • 5) Compound 2 (10 mg/kg)
Treatment Group B (n=6/group): (See Results in FIG. 2b) • 1) KKA^y vehicle control (sesame oil) • 2) Compound 11 (15 mg/kg)
Treatment Group C (n=6/group): (See Results in FIG. 2c) • 1) KKA^y vehicle control (sesame oil) • 2) Compound 13 (15 mg/kg)
Treatment Group D (n=6/group): (See Results in FIG. 2d) • 1) KKA^y vehicle control (CMC) • 2) Compound 25 (3 mg/kg, CMC) Compound 25 was suspended in a solution of carboxymethyl cellulose (CMC; 1% carboxy methyl cellulose in H2O, with 10% polyethelene glycol 400), and administered to animals in a volume of 5 ml/kg/dose.
Treatment Group E (n=5/group): (See Results in FIG. 2e) • 1) KKA^y vehicle control (10% HPβCD) • 2) Compound 25 (1 mg/kg) • 3) Compound 25 (3 mg/kg) • 4) Compound 25 (10 mg/kg) Compound 25 was dissolved in a 10% hydroxy propyl beta cyclodextrin solution, and administered to animals in a volume of 10 ml/kg/dose.
Serum glucose, triglyceride and/or cholesterol levels were measured in duplicate. The blood is kept at room temperature to allow coagulation, after which the serum is separated and assayed for glucose, triglyceride and/or cholesterol levels. As shown in FIGS. 2a–2d all of the compounds tested reduced serum glucose and triglyceride levels, some with doses as low as 3 mg/kg when administered once a day.

[2] = system: diet-induced hypercholesterolemic Sprague Dawley rats; experiment: Diet-induced hypercholesterolemia in wild type Sprague Dawley rats (total, HDL, LDL cholesterol); type: in vivo, rat; settings: Sprague Dawley rats on atherogenic diet, oral once daily, day 5, FIGS. 5a–c
From the text: Experimental Procedure: Six week-old male Sprague Dawley rats (obtained from Harlan of San Diego, Calif.) were housed in a fixed 12—12-hr artificial light-dark cycle, and maintained on a high cholesterol atherogenic diet (Paigen's Diet, obtained from Research Diet Inc. of New Brounswick, N.J.) was provided ad libitum. Animals were allowed six days to acclimate in this experimental environment prior to the initiation of the study.
Prior to initiation of treatment, the animals were bled from the tail vein (100–200 μL of whole blood) and serum levels of cholesterol were measured in duplicate (Cholesterol Infinity kits; Sigma, St. Louis, Mo.). Based on these initial measures, animals were sorted into groups with approximately the same average total cholesterol levels. Once sorted, the animals were housed three per cage and maintained on Paigen's diet ad libitum. All compounds to be tested were suspended in sesame oil and administered in a final volume of 3 ml/kg. Drug is administered by oral gavage once daily at the beginning of the artificial light cycle. To obtain a base line for lipid measurement, a control group maintained on standart rodent diet is included (lean control).
Treatment Group A (n=6/group): (See Results in FIG. 5a) • 1) Lean control (Sesame Oil) • 2) Control • 3) Compound 2 (0.3 mg/kg) • 4) Compound 2 (1 mg/kg) • 5) Compound 2 (3 mg/kg)
Treatment Group B (n=6/group): (See Results in FIG. 5b) • 1) Lean control (Sesame Oil) • 2) Control • 3) Compound 6 (3 mg/kg)
Treatment Group C (n=6/group): (See Results in FIG. 5c) • 1) Lean control (10% HPβCD) • 2) Control • 3) Compound 25 (1 mg/kg) • 4) Compound 25 (3 mg/kg) • 5) Compound 25 (10 mg/kg) • 6) Compound 25 (15 mg/kg) • The compounds were dissolved in a 10% hydroxy propyl beta cyclodextrin solution, and administered to animals in a volume of 10 ml/kg/dose.
To monitor the effect of the tested compounds, animals were bled from the tail vein at the end of the dark cycle on days 0 (for sorting) and day 5 of the treatment period. Fed serum cholesterol levels were measured in duplicate. The blood is kept at room temperature to allow coagulation, after which the serum is separated and assayed for total cholesterol (Infinity reagent, Sigma), HDL cholesterol (using HDL precipitating reagent and infinity reagent, Sigma) and LDL cholesterol (EZLDL kit, Sigma). As shown in FIGS. 5a–c, all compounds tested show significant reduction in total and LDL cholesterol levels and a significant increase in HDL cholesterol levels compared to high fat fed control animals.

[3] = system: carcinogen induced mammary tumors; experiment: Progression of carcinogen induced mammary tumors in Sprague Dawley rats; type: in vivo, rat; settings: oral once daily for four weeks; for growth / progression of mammary (breast cancer) tumors: vs vehicle treated controls; for growth / progression of mammary (breast cancer) tumors / regression of tumors / number of static tumors: FIG. 6; for number of static tumors: compared to control animals
Procedure: Procedure: Five week-old female Sprague Dawley rats (Harlan) were housed in a fixed 12–12-hr artificial light-dark cycle, and maintained on a standard rodent diet provided ad libitum. Animals were allowed two days to acclimate in this experimental environment prior to the initiation of the study.
To induce mammary tumors, the female […] were injected intraperitoneally with the carcinogen n-nitroso-n-methylurea, in a single dose of 50 mg/kg in acidified normal saline (pH 4 w/acetic acid) at a final volume of 10 mg/ml (5 ml/kg). After eight weeks, mammary tumors are detected, and the tumor bearing females are sorted into treatment groups. Once sorted, the animals were housed four per cage and provided rodent diet ad libitum. All animals are treated with compound 1 or a vehicle for four weeks, during which time changes in tumor size are monitored. Tumors were classified as regressing, static or progressing.
Treatment groups (n=8/group): • 1) Control (sesame oil) • 2) Compound 6 (20 mg/kg) • 3) Compound 11 (100 mg/kg) • 4) Compound 13 (50 mg/kg) • 5) Compound 24 (50 mg/kg) • 6) Compound 25 (20 mg/kg) • 7) Compound 25 (100 mg/kg)
All of the compounds tested were suspended in sesame oil, and administered to animals in a volume of 3 ml/kg/dose, except compound 25 which was dissolved in a 10% hydroxy propyl beta cyclodextrin solution, and administered to animals in a volume of 10 ml/kg/dose. All treatments were administered by oral gavage once daily for four weeks.
To monitor the effect of the tested compound, animals were examined for mammary tumors once every week. Tumors were classified into one of three categories, progressing, static or regressing.

[4] = Oral bioavailability, single dose pharmacokinetic study in rats (plasma concentration by HPLC); type: in vivo, Sprague Dawley rats; settings: rat
From the text: Oral bioavailability is an important pharmaceutical characteristic for a compound to advance through drug development. A basic assessment of the oral bioavailability of a compound can be done in a single dose pharmacokinetic study in wild type rats.
Six to eight week-old male Sprague Dawley rats (Harlan) were housed in a fixed 12–12- hr artificial light-dark cycle, and maintained on a standard rodent diet provided ad libitum. Animals were allowed two days to acclimate in this experimental environment prior to the initiation of the study. Compounds 24 and 25 were dissolved in a 10% hydroxypropyl beta cyclodextrin solution and administered by oral gavage in a final dose of 10 mg/kg in a volume of 5 ml/kg. Treatment groups were divided as follows:
Treatment groups(n=3/group): • 1) Compound 24 (10 mg/kg) • 2) Compound 25 (10 mg/kg)
Each animal received a single treatment, after which, the animal was bled from the tail vein at the following time points: 0.5, 1, 2, 4, 6, 9, 12, and 26 hours after treatment. To measure the concentration of each compound in plasma, blood samples were collected in heparin-coated tubes, and the plasma was isolated and analyzed by HPLC.

[5] = system: db/db mutant mice; experiment: Oral treatment of type 2 diabetes in db/db mutant mice (serum glucose, triglyceride); type: in vivo, mouse
Procedure: Experimental Procedure: Seven week-old female db/db mutant mice (C57BL/KsJ-db +/+m; Jackson Labs, Bar Harbour, Me.) were housed in a fixed 12—12-hr artificial light-dark cycle, and maintained on a standard high fat diet (containing at least 11% crude fat) provided ad libitum (Teklad S-2335). Animals were allowed two days to acclimate in this experimental environment prior to the initiation of the study. Prior to initiation of treatment, the animals were bled from the tail vein (100–200 μL of whole blood) and serum levels of glucose and triglycerides were measured in duplicate (Trinder kits; Sigma, St. Louis, Mo.). Based on these initial measures, animals were sorted into treatment groups with approximately the same average serum glucose levels. Once sorted, the animals were housed five per cage and provided high fat rodent diet ad libitum.
Treatment Groups (n=5/group): • 1) db/db control (CMC) • 2) Compound 25 (0.1 mg/kg, in CMC) • 3) Compound 25 (0.3 mg/kg, in CMC) • 4) Compound 25 (1 mg/kg, in CMC)
Compound 25 was suspended in a solution of carboxymethyl cellulose (CMC; 1% carboxy methyl cellulose in H2O, with 10% polyethelene glycol 400), and administered to animals in a volume of 5 ml/kg/dose. The drug is administered by oral gavage once daily at the beginning of the artificial light cycle.
To monitor the effect of the tested compounds, animals were bled following a three-hour fast at the end of the dark cycle on days 0, 7, 14 of the treatment period. Fasting serum glucose and triglyceride levels were measured in duplicate. The blood is kept at room temperature to allow coagulation, after which the serum is separated and. assayed for glucose and triglyceride levels.

[6] = KKA^y mice, oral once daily, vs control mice, FIGS. 2a–d
[7] = oral once daily in CMC, compared to control animals, FIG. 3
[8] = KKA^y mice, 1, 3, 10 mg/kg oral in 10% HPβCD, following 4 weeks of treatment, FIG. 2e

Row | SMILES | serum glucose level [1, 6] | serum triglyceride level [1, 6] | growth / progression of mammary (breast cancer) tumors [3] | regression of tumors [3] | number of static tumors [3] | further results
1 | Cc1cc2c(cc1-c1cc(/C=C3\SC(=O)NC3=O)ccc1OC(F)(F)F)N(C)C(=O)CC2(C)C [Compound 1, 5-[3-(1,4,4,6-Tetramethyl-2-oxo-1,2,3,4-tetrahydro-quinolin-7-yl)-4-trifluoromethoxy-benzylidene]-thiazolidine-2,4-dione] | decrease | decrease |  |  |  | 
2 | CCN1C(=O)CC(C)(C)c2cc(C)c(-c3cc(/C=C4\SC(=O)NC4=O)ccc3Cl)cc21 [Compound 6, 5-[3-(1-Ethyl-4,4,6-trimethyl-2-oxo-1,2,3,4-tetrahydro-quinolin-7-yl)-4-chloro-benzylidene]-thiazolidine-2,4-dione] |  |  | slow or cause regression |  |  | HDL cholesterol [2]: increasing; LDL cholesterol [2]: decrease; total cholesterol [2]: decrease
3 | Cc1cc2c(cc1-c1cc(/C=C3\SC(=O)NC3=O)ccc1OC(F)(F)F)N(C(C)C)C(=O)CC2(C)C [Compound 11, 5-[3-(1-Isopropyl-4,4,6-trimethyl-2-oxo-1,2,3,4-tetrahydro-quinolin-7-yl)-4-trifluoromethoxy-benzylidene]-thiazolidine-2,4-dione] | decrease | decrease | slow or cause regression | without causing any regressions | only increase the number of static tumors | 
4 | CCN1C(=O)CC(C)(C)c2cc(C)c(-c3c(F)c(/C=C4\SC(=O)NC4=O)cc(F)c3OC)cc21 [Compound 13, 5-[3-(1-Ethyl-4,4,6-trimethyl-2-oxo-1,2,3,4-tetrahydro-quinolin-7-yl)-2,5-difluoro-4-methoxy-benzylidene]-thiazolidine-2,4-dione] | decrease | decrease | slow or cause regression | without causing any regressions | only increase the number of static tumors | 
5 | CCN1C(=O)CC(C)(C)c2cc(C)c(-c3cc(/C=C4\SC(=O)NC4=O)ccc3OC(F)(F)F)cc21 [Compound 25, 5-[3-(1-Ethyl-4,4,6-trimethyl-2-oxo-1,2,3,4-tetrahydro-quinolin-7-yl)-4-trifluoromethoxy-benzylidene]-thiazolidine-2,4-dione, TRIS Salt] |  |  | slow or cause regression | caused the regression of tumors |  | dose causing regression of tumors (as low as) [3]: ≥ 20 mg/kg; concentration of compound in plasma ([4]; single oral dose 10 mg/kg in 10% HPβCD, 0.5–26 hours, FIG. 7): significantly higher concentration; oral bioavailability ([4]; single oral dose 10 mg/kg, Compound 25 over Compound 24): improved bioavailability; dose ameliorating the symptoms of diabetes (as low as) ([5]; once daily oral): ≥ 0.3 mg/kg; fasting serum glucose [5, 7]: reduced; fasting serum triglyceride [5, 7]: reduced; serum glucose level [1, 8]: unexpectedly strong and simultaneous reduction; serum total cholesterol level [1, 8]: unexpectedly strong and simultaneous reduction; serum triglyceride level [1, 8]: unexpectedly strong and simultaneous reduction
